Source: patent publication US6710049B2, “Azole compounds as anti-fungal agents” (Ranbaxy Laboratories Limited, priority 2000, dated 2004)

Tests used:
C albicans A-26 = assay: MIC determination (NCCLS broth method); assay type: cell-based, Candida albicans
Excerpt: (§1) The in-vitro evaluation of the antifungal activity of the compounds can be performed by determining the minimum inhibitory concentration (MIC) as shown in Table 1 which is the concentration of the test compound in Rosewell Park Memorial Institute (RPMI) 1640 liquid medium buffered with 3-(Morpholino)propanesulphonic acid (MOPS) to pH 7, at which there is significant inhibition of the particular fungi. In practice the National Committee for Clinical Laboratory Standard (NCCLS) M27A document for Candida and Cryptococcus and M38P for Aspergillus was used to determine the MIC against yeast and filamentous fungi with suitable modifications for dermatophytes to other filamentous fungi. Three quality control strains were included each time the MIC were determined and readings recorded only when the Quality Control results fell into the acceptable range. After MIC results had been recorded, 100 μl from each of the well showing no growth was spread over Sabouraud Dextrose Agar (SDA) to determine the minimum fungicidal concentration (MFC) as shown in Table 2.

C albicans Y01.19 = assay: MIC determination (NCCLS broth method); assay type: cell-based, Candida albicans
Excerpt: as §1

A flavus E2 - 1043 = assay: MIC determination (NCCLS broth method); assay type: cell-based
Excerpt: as §1

A flavus P2 - 1045 [1] = assay: MIC determination (NCCLS broth method); assay type: cell-based
Excerpt: as §1

A niger E5 - 1047 [2] = assay: MIC determination (NCCLS broth method); assay type: cell-based
Excerpt: as §1

A niger P1 - 1046 [3] = assay: MIC determination (NCCLS broth method); assay type: cell-based
Excerpt: as §1

Alternaria 1051 [4] = assay: MIC determination (NCCLS broth method); assay type: cell-based
Excerpt: as §1

C krusei 766.1 = assay: MIC determination (NCCLS broth method); assay type: cell-based
Excerpt: as §1

Fusarium 1827C = assay: MIC determination (NCCLS broth method); assay type: cell-based
Excerpt: as §1

Fusarium 2960C = assay: MIC determination (NCCLS broth method); assay type: cell-based
Excerpt: as §1

Penicillium 191 [5] = assay: MIC determination (NCCLS broth method); assay type: cell-based
Excerpt: as §1

Penicillium I - 1049 [6] = assay: MIC determination (NCCLS broth method); assay type: cell-based
Excerpt: as §1

A flavus E3 - 1044 = assay: MFC determination (subculture on Sabouraud Dextrose Agar); assay type: cell-based
Excerpt: as §1

A flavus E4 - 1042 = assay: as above; assay type: cell-based
Excerpt: as §1

A flavus P2 - 1045 [7] = assay: as above; assay type: cell-based
Excerpt: as §1

A flavus P3 - 1041 = assay: as above; assay type: cell-based
Excerpt: as §1

A niger E5 - 1047 [8] = assay: as above; assay type: cell-based
Excerpt: as §1

A niger P1 - 1046 [9] = assay: as above; assay type: cell-based
Excerpt: as §1

Alternaria 1051 [10] = assay: as above; assay type: cell-based
Excerpt: as §1

C krusei 6258 = assay: as above; assay type: cell-based
Excerpt: as §1

C parapsilosis 22019 = assay: as above; assay type: cell-based
Excerpt: as §1

Mucor (Ceylon) = assay: as above; assay type: cell-based
Excerpt: as §1

Penicillium 1641 = assay: as above; assay type: cell-based
Excerpt: as §1

Penicillium 191 [11] = assay: as above; assay type: cell-based
Excerpt: as §1

Penicillium 2306 = assay: as above; assay type: cell-based
Excerpt: as §1

Penicillium 2548 = assay: as above; assay type: cell-based
Excerpt: as §1

Penicillium 31620 = assay: as above; assay type: cell-based
Excerpt: as §1

Penicillium H - 1048 = assay: as above; assay type: cell-based
Excerpt: as §1

Penicillium I - 1049 [12] = assay: as above; assay type: cell-based
Excerpt: as §1

Rhizopus (Ceylon) = assay: as above; assay type: cell-based
Excerpt: as §1

Rhizopus 1052 = assay: as above; assay type: cell-based
Excerpt: as §1

Fusarium (Ceylon) = assay: as above; assay type: cell-based
Excerpt: as §1

Fusarium 18270 = assay: as above; assay type: cell-based; settings: Fusarium 18270
Excerpt: as §1

Fusarium 29600 = assay: as above; assay type: cell-based; settings: Fusarium 29600
Excerpt: as §1

Aspergillus fumigatous = assay: In vivo anti-fungal activity, ED50 in systemically infected mice; design: species or system Swiss albino mice; settings: mice infected i.v. with Aspergillus fumigatous, dosing for five days
Method: The in-vivo evaluation of the compound can be carried out at a series of dose levels by oral or I. V. injection to mice which are inoculated I.V. with the minimum lethal dose of Candida albicans, Cryptococcus neoformans or Aspergillus fumigatus by the tail vein. Activity is based on the survival of a treated group of mice after the death of an untreated group of mice. For Aspergillus and Cryptococcus infections, target organs were cultured after treatment to document the number of mice cured of the infection for further assessment of activity.
Method: Briefly, Swiss albino mice weighing 20±2 G were injected intravenously (tail vein) with sufficient fungal cells to kill 100% of the untreated animals for Aspergillus fumigatous strain used. In all cases each group comprised of six mice. Five does levels, utilizing doubling dilution range, were employed per determination ranging from 25 to 1.56 mg/kg BW. Dosing was carried out for five days starting after 30 minutes of infection. […] Treated animals were monitored twice daily for 14 days post infection at which time the experiment was terminated and ED50 was calculated.

| Compound | Minimum Inhibitory Concentration (MIC) (C albicans Y01.19) [µg/mL] | Minimum Inhibitory Concentration (MIC) (A flavus E2 - 1043) [µg/mL] | Minimum Inhibitory Concentration (MIC) (A flavus P2 - 1045 [1]) [µg/mL] | Minimum Inhibitory Concentration (MIC) (A niger E5 - 1047 [2]) [µg/mL] | Minimum Inhibitory Concentration (MIC) (A niger P1 - 1046 [3]) [µg/mL] | Minimum Inhibitory Concentration (MIC) (Alternaria 1051 [4]) [µg/mL] | Minimum Inhibitory Concentration (MIC) (C krusei 766.1) [µg/mL] | Minimum Inhibitory Concentration (MIC) (Fusarium 1827C) [µg/mL] | Minimum Inhibitory Concentration (MIC) (Fusarium 2960C) [µg/mL] | Minimum Inhibitory Concentration (MIC) (Penicillium 191 [5]) [µg/mL] | Minimum Inhibitory Concentration (MIC) (Penicillium I - 1049 [6]) [µg/mL] | Minimum Fungicidal Concentration (MFC) (A flavus E3 - 1044) [µg/mL] | Minimum Fungicidal Concentration (MFC) (A flavus P2 - 1045 [7]) [µg/mL] | Minimum Fungicidal Concentration (MFC) (A niger E5 - 1047 [8]) [µg/mL] | Minimum Fungicidal Concentration (MFC) (A niger P1 - 1046 [9]) [µg/mL] | Minimum Fungicidal Concentration (MFC) (Alternaria 1051 [10]) [µg/mL] | Minimum Fungicidal Concentration (MFC) (C krusei 6258) [µg/mL] | Minimum Fungicidal Concentration (MFC) (C parapsilosis 22019) [µg/mL] | Minimum Fungicidal Concentration (MFC) (Mucor (Ceylon)) [µg/mL] | Minimum Fungicidal Concentration (MFC) (Penicillium 1641) [µg/mL] | further results |
| --- | --- | --- | --- | --- | --- | --- | --- | --- | --- | --- | --- | --- | --- | --- | --- | --- | --- | --- | --- | --- | --- |
| C[C@@H]1[C@H](O)[C@@H](C)/C=C/C=C/C=C/C=C/C=C/C=C/C=C/[C@H](O[C@@H]2O[C@H](C)[C@@H](O)[C@H](N)[C@@H]2O)C[C@@H]2O[C@](O)(C[C@@H](O)C[C@@H](O)[C@H](O)CC[C@@H](O)C[C@@H](O)CC(=O)O[C@H]1C)C[C@H](O)[C@H]2C(=O)O [Amphotericin-B, Amphotericin B] | 0.125 | 1 | 1 | 0.25 | 0.25 | 1 | 0.25 | >128 | 0.5 | 0.25 | 0.25 | 0.5 | 1 | 0.25 | 0.25 | >128 | 1 | 32 | 1 | 16 | Minimum Inhibitory Concentration (MIC) (C albicans A-26): 0.25 µg/mL; Minimum Fungicidal Concentration (MFC) (A flavus E4 - 1042): 0.125 µg/mL; Minimum Fungicidal Concentration (MFC) (A flavus P3 - 1041): 0.5 µg/mL; Minimum Fungicidal Concentration (MFC) (Penicillium 191 [11]): 2 µg/mL; Minimum Fungicidal Concentration (MFC) (Penicillium 2306): 0.5 µg/mL; Minimum Fungicidal Concentration (MFC) (Penicillium 2548): 4 µg/mL; Minimum Fungicidal Concentration (MFC) (Penicillium 31620): 0.25 µg/mL; Minimum Fungicidal Concentration (MFC) (Penicillium H - 1048): 2 µg/mL; Minimum Fungicidal Concentration (MFC) (Penicillium I - 1049 [12]): 4 µg/mL; Minimum Fungicidal Concentration (MFC) (Rhizopus (Ceylon)): 64 µg/mL; Minimum Fungicidal Concentration (MFC) (Rhizopus 1052): 8 µg/mL |
| C[C@@H](n1ncn(-c2ccc(N3CCN(c4ccc(Cl)cc4)CC3)cc2)c1=S)[C@](O)(Cn1cncn1)c1ccc(F)cc1F [Compound No. 1, 2-{[1R,2R]-2-(2,4-Difluorophenyl)-2-hydroxy-1-methyl-3-(1H-1,2,4-triazole-1-yl)propyl}-4-{4-[4-(4-chlorophenyl)-1-piperizinyl]phenyl}-3-(2H,4H)-1,2,4-thiotriazolone] | 0.03 | 0.008 | 0.016 | 0.03 | 0.03 | 0.03 | 0.125 | 2 | 2 | 0.06 | 0.03 | 0.03 | 0.03 | 0.06 | 0.06 | 0.06 | 0.016 | 0.016 | 1 | 0.25 | Minimum Inhibitory Concentration (MIC) (C albicans A-26): 0.016 µg/mL; Minimum Fungicidal Concentration (MFC) (A flavus E4 - 1042): 0.03 µg/mL; Minimum Fungicidal Concentration (MFC) (A flavus P3 - 1041): 0.06 µg/mL; Minimum Fungicidal Concentration (MFC) (Fusarium (Ceylon)): 32 µg/mL; Minimum Fungicidal Concentration (MFC) (Fusarium 18270): >128 µg/mL; Minimum Fungicidal Concentration (MFC) (Fusarium 29600): >128 µg/mL; Minimum Fungicidal Concentration (MFC) (Penicillium 191 [11]): 0.125 µg/mL; Minimum Fungicidal Concentration (MFC) (Penicillium 2306): 0.06 µg/mL; Minimum Fungicidal Concentration (MFC) (Penicillium 2548): 0.125 µg/mL; Minimum Fungicidal Concentration (MFC) (Penicillium 31620): 0.125 µg/mL; Minimum Fungicidal Concentration (MFC) (Penicillium H - 1048): 4 µg/mL; Minimum Fungicidal Concentration (MFC) (Penicillium I - 1049 [12]): 1 µg/mL; Minimum Fungicidal Concentration (MFC) (Rhizopus (Ceylon)): 0.5 µg/mL; Minimum Fungicidal Concentration (MFC) (Rhizopus 1052): 0.03 µg/mL |
| C[C@@H](n1ncn(-c2ccc(OCC(F)(F)C(F)F)cc2)c1=O)[C@](O)(Cn1cncn1)c1ccc(F)cc1F [TAK 187, 2-[(1R,2R)-2-(2,4-difluorophenyl)-2-hydroxy-1-methyl-3-(1H-1,2,4-triazol-1-yl)propyl]-4-(2′,2′,3′,3′-tetraflouropropoxyphenyl)-3(2H,4H)-1,2,4-triazolone] | 2 | 4 | 4 | 2 | 0.5 | 1 | 2 | 32 | 32 | 16 | 16 | 8 | 32 | 2 | 0.5 | 16 | 64 | 0.03 | >128 | 32 | Minimum Fungicidal Concentration (MFC) (Fusarium 18270): 32 µg/mL; Minimum Fungicidal Concentration (MFC) (Penicillium 191 [11]): 16 µg/mL; Minimum Fungicidal Concentration (MFC) (Penicillium 2306): 16 µg/mL; Minimum Fungicidal Concentration (MFC) (Penicillium 2548): 16 µg/mL; Minimum Fungicidal Concentration (MFC) (Penicillium 31620): 16 µg/mL; Minimum Fungicidal Concentration (MFC) (Penicillium H - 1048): >128 µg/mL; Minimum Fungicidal Concentration (MFC) (Penicillium I - 1049 [12]): 128 µg/mL; Minimum Fungicidal Concentration (MFC) (Rhizopus (Ceylon)): >128 µg/mL; Minimum Fungicidal Concentration (MFC) (Rhizopus 1052): 32 µg/mL; ED50 (Aspergillus fumigatous; Day 7 post infection): 10.08 mg/kg body weight; ED50 (Aspergillus fumigatous; Day 14 post infection): 20.39 mg/kg body weight |
